Like-named read-outs stand apart in the source and are kept apart here.
How the values were obtained:
ATR/ATRIP enzyme = molecular target: T1, ATR/ATRIP enzyme (Homo sapiens, UniProt Q13535); assay: ATR enzyme activity experiment (HTRF); type: biochemical; details: p53 substrate, 30 min room temperature, read-out: IC50 (nM), inhibitory effect on ATR kinase activity
T1 construct: purchased Eurofins 14-953
Procedure: The mixture was centrifuged at 1000 rpm for 1 minute, and reacted at room temperature protected from light for 30 minutes. Then 5 μL of EDTA stop solution (250 mM) was added to stop the reaction.

[1] = test system: human lung cancer NCI-H460 cell; assay: MTT proliferation assay, NCI-H460; type: cell-based; details: NCI-H460, 96 h, MTT, 4 days, read-out: IC50 (nM), proliferation of NCI-H460 cell
Procedure: The cells were digested by trypsinase and centrifuged at 800 rpm for 5 minutes, the supernatant was discarded, and the residual was resuspended with fresh medium […]) and counted.
(§1) The cells were seeded into 96-well cell culture plate with a density of 2000/4000 cells per well and incubated overnight in a 5% CO2 incubator at 37° C. […] 5 μL diluent of each concentration was added to 120 μL of medium (25 times diluted) and mixed by shaking. The overnight cell plates were taken and the culture medium was removed, 195 μL of fresh medium was added to each well, and 5 μL of diluted medium containing the corresponding concentration of the test compound was added respectively (the final concentration of DMSO is 1%), and the culture plate was then placed in a 5% CO2 incubator at 37° C. for 4 days. After removing the original solution, 100 μL of fresh serum-free DMEM medium containing MTT (0.5 mg/mL) was added to each well, the culture was continued. […] Cell viability (%)=(ODcompound−ODbackground)/(ODDMSO−ODbackground)×100. GraphPad Prism 6.0 was used to analyze the data. The inhibitory activity of compounds on cell proliferation was plotted based on cell viability and the logarithm of compound concentration. The IC50 value was fitted by a sigmoidal dose response curve equation Y−100/(1+10^(LogC−LogIC50)), wherein C was the concentration of compound.

[2] = test system: human colon cancer LoVo cell; assay: MTT proliferation assay, LoVo; type: cell-based; details: MTT, 4 days, read-out: IC50 (nM), proliferation of LoVo cell
Procedure: as §1, with “[…]” for “100 μL”, “viability (%)=(ODcompound−ODbackground)/ODDMSO−ODbackground)×100.” for “viability (%)=(ODcompound−ODbackground)/(ODDMSO−ODbackground)×100.”, “The IC5.0” for “The IC50”, “equation Y=100/(1+10^(LogC-LogIC50)),” for “equation Y−100/(1+10^(LogC−LogIC50)),”

[3] = Pharmacokinetics following single oral administration to mice; type: in vivo; details: mouse, CD-1 (ICR) mice, gavage 10 mg/kg, 0.5% methylcellulose/water suspension, plasma
Procedure: The compound of the present invention was formulated into a 0.5% methylcellulose/water uniform suspension, and was administered to CD-1 (ICR) mice by gavage at 10 mg/kg. Plasma samples were collected at 8 time points of 0.250, 0.500, 1.00, 2.00, 4.00, 6.00, 8.00 and 24.0 hours post-dose. Concentrations of the compound were determined by LC-MS/MS method.

T1 sequence (Q13535 whole entry): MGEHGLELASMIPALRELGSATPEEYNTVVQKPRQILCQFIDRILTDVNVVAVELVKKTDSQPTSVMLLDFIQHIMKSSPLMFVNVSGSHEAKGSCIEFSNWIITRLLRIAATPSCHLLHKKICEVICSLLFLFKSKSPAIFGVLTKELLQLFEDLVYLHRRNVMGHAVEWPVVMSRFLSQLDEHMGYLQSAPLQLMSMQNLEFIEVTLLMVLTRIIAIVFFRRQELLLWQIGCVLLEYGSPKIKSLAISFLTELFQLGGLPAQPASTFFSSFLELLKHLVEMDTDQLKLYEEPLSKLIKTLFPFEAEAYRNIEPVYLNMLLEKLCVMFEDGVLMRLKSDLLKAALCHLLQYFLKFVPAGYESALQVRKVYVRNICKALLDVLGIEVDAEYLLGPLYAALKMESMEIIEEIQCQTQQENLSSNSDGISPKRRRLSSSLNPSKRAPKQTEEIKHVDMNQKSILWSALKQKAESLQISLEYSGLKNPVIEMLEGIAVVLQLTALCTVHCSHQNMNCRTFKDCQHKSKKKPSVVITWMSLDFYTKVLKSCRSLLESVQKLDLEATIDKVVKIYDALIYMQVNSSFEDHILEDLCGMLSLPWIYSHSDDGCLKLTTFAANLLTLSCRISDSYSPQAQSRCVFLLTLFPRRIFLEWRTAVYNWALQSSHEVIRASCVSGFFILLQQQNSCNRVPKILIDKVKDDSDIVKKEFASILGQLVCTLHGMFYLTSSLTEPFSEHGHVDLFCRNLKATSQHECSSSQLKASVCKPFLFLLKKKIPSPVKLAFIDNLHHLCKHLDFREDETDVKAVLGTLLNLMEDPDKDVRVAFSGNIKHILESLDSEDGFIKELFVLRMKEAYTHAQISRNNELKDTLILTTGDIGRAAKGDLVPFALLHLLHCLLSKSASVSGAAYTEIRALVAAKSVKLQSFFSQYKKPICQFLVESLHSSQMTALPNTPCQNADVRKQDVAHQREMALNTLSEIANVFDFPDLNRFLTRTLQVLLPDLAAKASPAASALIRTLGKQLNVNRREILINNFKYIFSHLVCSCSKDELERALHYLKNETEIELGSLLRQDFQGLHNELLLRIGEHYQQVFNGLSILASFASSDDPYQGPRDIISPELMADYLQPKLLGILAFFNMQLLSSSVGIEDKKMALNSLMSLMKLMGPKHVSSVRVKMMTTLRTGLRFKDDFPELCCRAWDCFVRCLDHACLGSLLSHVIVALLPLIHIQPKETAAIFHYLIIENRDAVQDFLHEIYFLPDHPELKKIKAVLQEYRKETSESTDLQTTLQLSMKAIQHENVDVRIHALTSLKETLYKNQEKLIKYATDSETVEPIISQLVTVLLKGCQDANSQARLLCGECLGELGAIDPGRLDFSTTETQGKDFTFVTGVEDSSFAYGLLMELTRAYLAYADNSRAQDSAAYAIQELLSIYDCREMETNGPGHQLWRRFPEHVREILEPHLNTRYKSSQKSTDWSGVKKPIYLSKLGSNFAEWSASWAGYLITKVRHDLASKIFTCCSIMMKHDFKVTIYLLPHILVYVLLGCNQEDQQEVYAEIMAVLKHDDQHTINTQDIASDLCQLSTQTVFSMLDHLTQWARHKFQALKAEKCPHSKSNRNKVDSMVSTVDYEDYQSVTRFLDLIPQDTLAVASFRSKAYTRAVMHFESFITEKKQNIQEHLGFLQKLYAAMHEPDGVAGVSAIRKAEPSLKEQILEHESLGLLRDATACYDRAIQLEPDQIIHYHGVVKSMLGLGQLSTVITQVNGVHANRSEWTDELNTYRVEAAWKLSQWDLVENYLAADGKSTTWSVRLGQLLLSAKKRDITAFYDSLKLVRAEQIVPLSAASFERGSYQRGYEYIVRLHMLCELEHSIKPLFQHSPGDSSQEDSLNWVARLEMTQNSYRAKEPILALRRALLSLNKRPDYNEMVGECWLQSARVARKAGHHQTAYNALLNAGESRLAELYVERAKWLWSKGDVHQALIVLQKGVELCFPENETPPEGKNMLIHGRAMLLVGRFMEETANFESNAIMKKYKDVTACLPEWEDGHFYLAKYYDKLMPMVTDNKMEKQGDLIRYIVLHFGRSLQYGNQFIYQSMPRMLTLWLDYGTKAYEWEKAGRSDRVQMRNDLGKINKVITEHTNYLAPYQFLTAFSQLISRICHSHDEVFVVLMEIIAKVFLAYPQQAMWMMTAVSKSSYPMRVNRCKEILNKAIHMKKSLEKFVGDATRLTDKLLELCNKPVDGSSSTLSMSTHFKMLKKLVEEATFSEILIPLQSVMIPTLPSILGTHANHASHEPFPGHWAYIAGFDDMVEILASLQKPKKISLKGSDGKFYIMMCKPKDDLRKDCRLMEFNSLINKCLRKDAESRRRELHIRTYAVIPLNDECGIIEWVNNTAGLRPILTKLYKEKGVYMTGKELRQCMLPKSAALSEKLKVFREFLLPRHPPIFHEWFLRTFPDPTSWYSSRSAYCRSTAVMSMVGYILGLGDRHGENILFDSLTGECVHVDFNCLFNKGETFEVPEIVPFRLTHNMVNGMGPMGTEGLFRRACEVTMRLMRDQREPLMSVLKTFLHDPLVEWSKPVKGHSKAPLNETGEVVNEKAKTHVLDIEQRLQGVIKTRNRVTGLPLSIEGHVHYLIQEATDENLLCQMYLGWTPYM
T1 sequence (Q8WXE1 whole entry partner): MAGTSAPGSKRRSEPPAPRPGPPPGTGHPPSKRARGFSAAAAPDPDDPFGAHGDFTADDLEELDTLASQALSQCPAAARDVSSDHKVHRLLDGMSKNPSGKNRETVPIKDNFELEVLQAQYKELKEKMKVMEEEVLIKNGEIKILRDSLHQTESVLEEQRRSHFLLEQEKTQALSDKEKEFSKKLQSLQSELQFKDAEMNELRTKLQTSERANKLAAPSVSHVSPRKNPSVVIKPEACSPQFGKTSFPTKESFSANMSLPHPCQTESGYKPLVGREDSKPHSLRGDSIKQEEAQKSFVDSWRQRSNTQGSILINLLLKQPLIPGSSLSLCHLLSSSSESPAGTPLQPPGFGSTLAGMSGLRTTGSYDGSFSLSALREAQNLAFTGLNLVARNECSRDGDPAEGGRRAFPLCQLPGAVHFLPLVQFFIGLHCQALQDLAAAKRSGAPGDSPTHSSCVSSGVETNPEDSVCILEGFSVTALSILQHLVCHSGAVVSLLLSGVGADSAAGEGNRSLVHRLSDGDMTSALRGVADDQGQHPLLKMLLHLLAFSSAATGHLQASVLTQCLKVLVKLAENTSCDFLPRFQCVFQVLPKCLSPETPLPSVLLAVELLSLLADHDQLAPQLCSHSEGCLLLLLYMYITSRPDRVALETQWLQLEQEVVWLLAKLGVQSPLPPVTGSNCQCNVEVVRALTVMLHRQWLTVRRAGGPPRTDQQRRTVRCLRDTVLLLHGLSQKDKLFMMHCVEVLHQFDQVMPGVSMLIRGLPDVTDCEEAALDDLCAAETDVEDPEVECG

Compound	IC50 (ATR/ATRIP enzyme) [nM]	IC50 [1] [nM]	IC50 ([2]; Homo sapiens, LoVo, 96 h) [nM]	AUC(0-inf) [3] [ng·h/mL]	AUC(0-t) [3] [ng·h/mL]	Cmax [3] [ng/mL]	half-life [3] [h]	IC50 [2] [nM]
Cc1cc(-c2nc(C)c3c(-c4ccnn4C)cc(N4CCOC[C@H]4C)nn23)[nH]n1 [Example 8, (R)-3-methyl-4-(5-methyl-4-(1-methyl-1H-pyrazol-5-yl)-7-(3-methyl-1H-pyrazol-5-yl)imidazo[1,5-b]pyridazin-2-yl)morpholine]	4	14.9	17.9					
C[C@@H]1COCCN1c1cc(-c2ccnn2C)c2c(Cl)nc(-c3ccn[nH]3)n2n1 [Example 21, (R)-4-(5-chloro-4-(1-methyl-1H-pyrazol-5-yl)-7-(1H-pyrazol-5-yl)imidazo[1,5-b]pyridazin-2-yl)-3-methylmorpholine]	6	24.1	22.4	42900	42800	7340	2.65	
C[C@@H]1COCCN1c1cc(-c2ccnn2C)c2c(Br)nc(-c3ccn[nH]3)n2n1 [Example 22, (R)-4-(5-bromo-4-(1-methyl-1H-pyrazol-5-yl)-7-(1H-pyrazol-5-yl)imidazo[1,5-b]pyridazin-2-yl)-3-methylmorpholine]	2	17.1	24.1	63000	59000	7670	5.88	
Cc1cc(S(C)(=O)=O)ccc1-c1cc(N2CCOC[C@H]2C)nn2c(-c3ccn[nH]3)nc(C)c12 [Example 15, (R)-3-methyl-4-(5-methyl-4-(2-methyl-4-(methylsulfonyl)phenyl)-7-(1H-pyrazol-5-yl)imidazo[1,5-b]pyridazin-2-34)morpholine]	6	12.5	19.5					
C=C(C)c1nc(-c2ccn[nH]2)n2nc(N3CCOC[C@H]3C)cc(-c3ccnn3C)c12 [Example 25, (R)-3-Methyl-4-(4-(1-Methyl-1H-pyrazol-5-yl)-5-(prop-1-en-2-yl)-7-(1H-pyrazol-5-yl)imidazo[1,5-b]pyridazin-2-yl)morpholine]	1	8.64	10.7	70200	70000	16900	2.56	
Cc1nc(-c2ccn[nH]2)n2nc(N3CCOC[C@H]3C)cc(-c3cccc(C#N)c3)c12 [Example 6, (R)-3-(5-methyl-2-(3-methylmorpholino)-7-(1H-pyrazol-5-yl)imidazol, [1,5-b]pyridazin-4-yl)benzonitrile]	5	21.8	44.1					
C=Cc1nc(-c2ccn[nH]2)n2nc(N3CCOC[C@H]3C)cc(-c3ccnn3C)c12 [Example 23, (R)-3-methyl-4-(4-(1-methyl-1H-pyrazol-5-yl)-7-(1H-pyrazol-5-yl)-5-vinylimidazo[1,5-b]pyridazin-2-yl)morpholine]	2	32	39.1	24100	22400	6610	1.66	
Cc1nc(-c2ccn[nH]2)n2nc(N3CCOC[C@H]3C)cc(C3CCOCC3)c12 [Example 7, (R)-3-methyl-4-(5-methyl-7-(1H-pyrazol-5-yl)-4-(tetrahydro-2H-pyran-4-yl)imidazol[1,5-b]pyridazin-2-yl)morpholine]	1	15.7	24.6					
C[C@@H]1COCCN1c1nc(-c2ccnn2C)c2cnc(-c3cc[nH]n3)n2n1 [Example 27, (R)-3-methyl-4-(4-(1-methyl-1H-pyrazol-5-yl)-7-(1H-pyrazol-3-yl)imidazo[5,1-f][1,2,4]triazin-2-yl)morpholine]		68.3	110					
Cc1cnn(C)c1-c1cc(N2CCOC[C@H]2C)nn2c(-c3ccn[nH]3)nc(C)c12 [Example 11, (R)-4-(4-(1,4-dimethyl-1H-pyrazol-5-yl)-5-methyl-7-(1H-pyrazol-5-yl)imidazo[1,5-b]pyridazin-2-yl)-3-methylmorpholine]	2	30.1						

Now from value to compound:

IC50 (ATR/ATRIP enzyme) [nM]	IC50 [1] [nM]	IC50 ([2]; Homo sapiens, LoVo, 96 h) [nM]	AUC(0-inf) [3] [ng·h/mL]	AUC(0-t) [3] [ng·h/mL]	Cmax [3] [ng/mL]	half-life [3] [h]	IC50 [2] [nM]	Compound
1	28	19.6						Cc1nc(-c2ccn[nH]2)n2nc(N3CCOC[C@H]3C)cc(-c3cnn(C)c3C)c12 [Example 12, (R)-4-(4-(1,5-dimethyl-1H-pyrazol-4-yl)-5-methyl-7-(1H-pyrazol-5-yl)imidazo[1,5-b]pyridazin-2-yl)-3-methylmorpholine]
2	27.3	49.5						Cc1ccccc1-c1cc(N2CCOC[C@H]2C)nn2c(-c3ccn[nH]3)nc(C)c12 [Example 3, (R)-3-methyl-4-(5-methyl-7-(1H-pyrazol-5-yl)-4-(o-tolyl)imidazo[1,5-b]pyridazin-2-yl)morpholine]
14	33.2	46.5						Cc1nn(C)cc1-c1cc(N2CCOC[C@H]2C)nn2c(-c3ccn[nH]3)nc(C)c12 [Example 13, (R)-4-(4-(1,3-dimethyl-1H-pyrazol-4-yl)-5-methyl-7-(1H-pyrazol-5-yl)imidazo[1,5-b]pyridazin-2-yl)-3-methylmorpholine]
3	21.9	43.6						CCn1nccc1-c1cc(N2CCOC[C@H]2C)nn2c(-c3ccn[nH]3)nc(C)c12 [Example 2, (R)-4-(4-(1-ethyl-1H-pyrazol-5-yl)-5-methyl-7-(1H-pyrazol-5-yl)imidazo[1,5-b]pyridazin-2-yl)-3-methylmorpholine]
9	12.5	17.6						Cc1nc(-c2ccn[nH]2)n2nc(N3CCOC[C@H]3C)cc(-c3cccnc3F)c12 [Example 16, (R)-4-(4-(2-fluoropyridin-3-yl)-5-methyl-7-(1H-pyrazol-5-yl)imidazo[1,5-b]pyridazin-2-yl)-3-methylmorpholine]
18	45.8	49.1						Cc1ccc(-c2cc(N3CCOC[C@H]3C)nn3c(-c4ccn[nH]4)nc(C)c23)cn1 [Example 17, (R)-3-methyl-4-(5-methyl-4-(6-methylpyridin-3yl)-7-(1H-pyrazol-5-yl)imidazo[1,5-b]pyridazin-2-yl)morpholine]
3	30.2	39.3						Cc1nc(-c2ccn[nH]2)n2nc(N3CCOC[C@H]3C)cc(-c3ccnn3C(C)C)c12 [Example 9, (R)-4-(4-(1-isopropyl-1H-pyrazol-5-yl)-5-methyl-7-(1H-pyrazol-5-yl)imidazo[1,5-b]pyridazin-2-yl)-3-methylmorpholine]
10	28	41.8					47.2	Cc1nc(-c2ccn[nH]2)n2nc(N3CCOC[C@H]3C)cc(-c3ccncc3F)c12 [Example 18, (R)-4-(4-(3-fluoropyridin-4-yl)-5-methyl-7-(1H-pyrazol-5-yl)imidazo[1,5-b]pyridazin-2-yl)-3-methylmorpholine]
41	89.9	79.1						C[C@@H]1COCCN1c1cc(-c2ccnn2C)c2c(F)nc(-c3ccn[nH]3)n2n1 [Example 20, (R)-4-(5-fluoro-4-(1-methyl-1H-pyrazol-5-yl)-7-(1H-pyrazol-5-yl)imidazo[1,5-b]pyridazin-2-yl)-3-methylmorpholine]
217	97.3	116						Cc1nc(-c2ccn[nH]2)n2nc(N3CCOC[C@H]3C)cc(-c3ccn(C(F)F)n3)c12 [Example 10, (R)-4-(4-(1-(difluoromethyl)-1H-pyrazol-3-yl)-5-methyl-7-(1H-pyrazol-5-yl)imidazo[1,5-b]pyridazin-2-yl)-3-methylmorpholine]

From US20240059695A1, “SUBSTITUTED IMIDAZO[1,5-b]PYRIDAZINE COMPOUNDS AS KINASE INHIBITORS AND USE THEREOF” (IMPACT THERAPEUTICS (SHANGHAI), INC, priority 2020, published 2024)
